Test: recombinant barcode read abundance after kanamycin selection (control-corrected) (log10(CPM+1)); higher = more efficient recombination; sequences stand for … in AGTGCAGAGAAAATCGGCCAGTTTTCTCTGCCTGCAGTCCGCATGCCGT…AGATTTATGCAGCGGACTGCCTTTCTCCCAAAGTGATAAACCGGACAGTATCATGGACCGGTTTTCCCGGTAATCCGTATTTGCAAGGTTGGTTTCACT; site = the 11-nt target
Summary of the method: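 Reported as log10(CPM+1), each value stands for recombination efficiency. That efficiency is the averaged, control-corrected counts per million of barcodes found at recombinant junctions. Cells from a pooled E. coli library pairing targets with IS621 bridge RNA target-binding loops were plated twice on chloramphenicol/ampicillin LB agar (control) and twice on chloramphenicol/ampicillin/kanamycin with 0.1 mM IPTG.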
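Also: IS621 recombinase and bridge RNA in Escherichia coli cells.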

Row | Sequence | recombinant barcode read abundance (log10)
1 | AGTCGGTCTTGGGTTCTAACCTGTTGCAT (site AGTCGGTCTAT) | 0.813
2 | AGTCGGTCTTGGGTTCTAACCTGTTGCAT (site GGTCCGTCTAT) | 0.0825
3 | AGTCTACCTTGGGTTCTAACCTGTTGCTT (site AGTCTACCTAA) | 0.331
4 | AGTCTACCTTGGGTTCTAACCTGTTGCTT (site CGTCTACCTAA) | 0.0324
5 | AGTCTAGCTTGGGTTCTAACCTGTTGCCT (site AGTCTAGCTAG) | 0.0325
6 | AGTCTAGCTTGGGTTCTAACCTGTTGCCT (site AGTCTAGCTCG) | 0.692
7 | AGTCTAGCTTGGGTTCTAACCTGTTGCCT (site AGTCTAGCTGG) | 0.141
8 | AGTCTAGCTTGGGTTCTAACCTGTTGCCT (site AGTCTAGCTTG) | 0.0207
9 | AGTCTAGCTTGGGTTCTAACCTGTTGCTA (site AGTCTAGCTGA) | 0.166
10 | AGTCTAGCTTGGGTTCTAACCTGTTGCTA (site AGTCTAGCTTA) | 0.175
11 | AGTGAGACTTGGGTTCTAACCTGTTGCGG (site ACCGAGACTCC) | 1.09
12 | AGTGAGACTTGGGTTCTAACCTGTTGCGG (site AGTGAGACTCC) | 2.99
13 | AGTGCGCCTTGGGTTCTAACCTGTTGCTA (site AGTGCGCCTTA) | 0.341
14 | AGTGCGCCTTGGGTTCTAACCTGTTGCTA (site AGTTCGCCTTA) | 0.29
15 | AGTGTCGCTTGGGTTCTAACCTGTTGCGG (site AGTATCGCTCC) | 0.96
16 | AGTGTCGCTTGGGTTCTAACCTGTTGCGG (site AGTCTCGCTCC) | 0.0162
17 | AGTGTCGCTTGGGTTCTAACCTGTTGCGG (site AGTGTCGCTCC) | 1.6
18 | AGTGTCGCTTGGGTTCTAACCTGTTGCGG (site AGTTTCGCTCC) | 0.301
19 | AGTTCTCCTTGGGTTCTAACCTGTTGCCT (site AGTTCTCCTAG) | 0.0504
20 | AGTTCTCCTTGGGTTCTAACCTGTTGCCT (site CGTTCTCCTAG) | 0.415
21 | AGTTCTCCTTGGGTTCTAACCTGTTGCCT (site GGTTCTCCTAG) | 0.207
22 | AGTTCTCCTTGGGTTCTAACCTGTTGCCT (site TGTTCTCCTAG) | 0.456

Row | Sequence | recombinant barcode read abundance (log10)
23 | AGTTGCACTTGGGTTCTAACCTGTTGCCT (site AGTTACACTAG) | 0.14
24 | AGTTGCACTTGGGTTCTAACCTGTTGCCT (site AGTTCCACTAG) | 0.11
25 | AGTTGCACTTGGGTTCTAACCTGTTGCCT (site AGTTGCACTAG) | 0.423
26 | AGTTGCACTTGGGTTCTAACCTGTTGCCT (site AGTTTCACTAG) | 0.0516
27 | AGTTTAACTTGGGTTCTAACCTGTTGCAC (site AGTTTAACTGT) | 0.0458
28 | AGTTTAACTTGGGTTCTAACCTGTTGCAC (site GTCGGTCCTCG) | 0.258
29 | ATAAAAGCTTGGGTTCTAACCTGTTGCCT (site ATAAAAGCTAG) | 1.5
30 | ATAAAAGCTTGGGTTCTAACCTGTTGCCT (site ATAACAGCTAG) | 0.0538
31 | ATAAAAGCTTGGGTTCTAACCTGTTGCCT (site ATAAGAGCTAG) | 0.172
32 | ATAAAAGCTTGGGTTCTAACCTGTTGCCT (site ATAATAGCTAG) | 0.59
33 | ATAAACCCTTGGGTTCTAACCTGTTGCAT (site AGAATCCCTAT) | 0.324
34 | ATAAACCCTTGGGTTCTAACCTGTTGCAT (site ATAAACCCTAT) | 2.4
35 | ATAACCTCTTGGGTTCTAACCTGTTGCCT (site ATAACCTCTAG) | 2
36 | ATAACCTCTTGGGTTCTAACCTGTTGCCT (site GAGGTGCCTCT) | 0
37 | ATAAGACCTTGGGTTCTAACCTGTTGCCT (site ATAAGACCTAG) | 2.24
38 | ATAAGACCTTGGGTTCTAACCTGTTGCCT (site ATGAGAGCTAG) | 0.229
39 | ATAAGGCCTTGGGTTCTAACCTGTTGCCT (site ATAAAGCCTAG) | 0.102
40 | ATAAGGCCTTGGGTTCTAACCTGTTGCCT (site ATAAGGCCTAG) | 0.154
41 | ATAGAATCTTGGGTTCTAACCTGTTGCTC (site ATAGAATCTGA) | 1.96
42 | ATAGAATCTTGGGTTCTAACCTGTTGCTC (site TGCCTGCCTCT) | 0.204
43 | ATAGACCCTTGGGTTCTAACCTGTTGCCT (site ATAGACCCTAG) | 2.36
44 | ATAGACCCTTGGGTTCTAACCTGTTGCCT (site CTAGACCCTAG) | 0.918

Row | Sequence | recombinant barcode read abundance (log10)
45 | ATAGACCCTTGGGTTCTAACCTGTTGCCT (site GTAGACCCTAG) | 0.599
46 | ATAGACCCTTGGGTTCTAACCTGTTGCCT (site TTAGACCCTAG) | 1.49
47 | ATAGAGTCTTGGGTTCTAACCTGTTGCCT (site ACAGATTCTAG) | 0.143
48 | ATAGAGTCTTGGGTTCTAACCTGTTGCCT (site ATAGAGTCTAG) | 2.64
49 | ATAGGGTCTTGGGTTCTAACCTGTTGCCT (site AAAGGGTCTAG) | 1.04
50 | ATAGGGTCTTGGGTTCTAACCTGTTGCCT (site ACAGGGTCTAG) | 1.85
51 | ATAGGGTCTTGGGTTCTAACCTGTTGCCT (site AGAGGGTCTAG) | 0.211
52 | ATAGGGTCTTGGGTTCTAACCTGTTGCCT (site ATAGGGTCTAG) | 2.5
53 | ATAGGTCCTTGGGTTCTAACCTGTTGCCT (site ATAGGTCCTAG) | 1.58
54 | ATAGGTCCTTGGGTTCTAACCTGTTGCCT (site ATCGGTCCTAG) | 0.202
55 | ATAGGTCCTTGGGTTCTAACCTGTTGCCT (site ATGGGTCCTAG) | 0.189
56 | ATAGGTCCTTGGGTTCTAACCTGTTGCCT (site ATTGGTCCTAG) | 0.309
57 | ATATCAACTTGGGTTCTAACCTGTTGCCG (site ATATCAACTCG) | 0.625
58 | ATATCAACTTGGGTTCTAACCTGTTGCCG (site TCTGTGTCTTA) | 0.0298
59 | ATATCTTCTTGGGTTCTAACCTGTTGCCT (site ATATCTTCTAG) | 1.03
60 | ATATCTTCTTGGGTTCTAACCTGTTGCCT (site ATTTCTTCTAG) | 0.578
61 | ATATGATCTTGGGTTCTAACCTGTTGCCT (site ATATGATCTAG) | 1.43
62 | ATATGATCTTGGGTTCTAACCTGTTGCCT (site ATATTATCTTG) | 0.145
63 | ATATGTACTTGGGTTCTAACCTGTTGCCA (site ATATGTACTCG) | 0.22
64 | ATATGTACTTGGGTTCTAACCTGTTGCCA (site ATATGTACTTG) | 0.733
65 | ATATGTCCTTGGGTTCTAACCTGTTGCAA (site ATATGTCCTTT) | 0.715
66 | ATATGTCCTTGGGTTCTAACCTGTTGCAA (site GGTGCATCTAA) | 0.0198

Row | Sequence | recombinant barcode read abundance (log10)
67 | ATCAAAGCTTGGGTTCTAACCTGTTGCCT (site ATCAAAGCTAG) | 0.154
68 | ATCAAAGCTTGGGTTCTAACCTGTTGCCT (site ATCACAGCTAG) | 0.156
69 | ATCAAGCCTTGGGTTCTAACCTGTTGCAG (site ATCAAGCCTCT) | 1.83
70 | ATCAAGCCTTGGGTTCTAACCTGTTGCAG (site TATCCCTCTAG) | 0.0814
71 | ATCAAGCCTTGGGTTCTAACCTGTTGCTT (site ATCAAGCCTAA) | 0.102
72 | ATCAAGCCTTGGGTTCTAACCTGTTGCTT (site ATGAAGCCTAA) | 0.122
73 | ATCATAGCTTGGGTTCTAACCTGTTGCGC (site ATCATAGCTGC) | 0.504
74 | ATCATAGCTTGGGTTCTAACCTGTTGCGC (site CCATACCCTTA) | 0.0517
75 | ATCATTCCTTGGGTTCTAACCTGTTGCCT (site AACATACCTAG) | 0.237
76 | ATCATTCCTTGGGTTCTAACCTGTTGCCT (site ATCATTCCTAG) | 0.542
77 | ATCCTTACTTGGGTTCTAACCTGTTGCCT (site AACCTTACTAG) | 0.247
78 | ATCCTTACTTGGGTTCTAACCTGTTGCCT (site ACCCTTACTAG) | 0.136
79 | ATCCTTACTTGGGTTCTAACCTGTTGCCT (site AGCCTTACTAG) | 0.156
80 | ATCCTTACTTGGGTTCTAACCTGTTGCCT (site ATCCTTACTAG) | 1.16
81 | ATCGCTTCTTGGGTTCTAACCTGTTGCCT (site AACGCTTCTAG) | 0.246
82 | ATCGCTTCTTGGGTTCTAACCTGTTGCCT (site ACCGCTTCTAG) | 0.272
83 | ATCGCTTCTTGGGTTCTAACCTGTTGCCT (site AGCGCTTCTAG) | 0.432
84 | ATCGCTTCTTGGGTTCTAACCTGTTGCCT (site ATCGCTTCTAG) | 0.0338
85 | ATCGGACCTTGGGTTCTAACCTGTTGCCT (site ATCGGAACTAG) | 0.0754
86 | ATCGGACCTTGGGTTCTAACCTGTTGCCT (site ATCGGACCTAG) | 1.23

Reference: the supplement of paper PMC11208160
